From patent US20150342964A1, “DEXAMETHASONE POLYMER IMPLANT FOR PAIN” (Warsaw Orthopedic, Inc., priority 2014, published 2015) come the findings set out here.

Data set [1] relates to rat chronic constriction injury (CCI) model. Kind of data set: Thermal Paw Withdrawal Latency Test (thermal hyperalgesia) in rat CCI model of neuropathic pain. Conditions: systemic, subcutaneous 0.02 mg/kg every day from day 7 post-surgery; p<0.05.
For data set [2] the test system is unchanged. The experiment in a line: von Frey Monofilament Test (mechanical/tactile allodynia) in rat CCI model of neuropathic pain. The settings on record: systemic, subcutaneous 0.02 mg/kg every day from day 7 post-surgery.
Data set [3] can be described thus: Body weight, side effects and adverse reactions observed over the 57-day rat CCI study. Conditions: systemic, sc 0.02 mg/kg every day, 57-day study.

SMILES strings stand for the structures. Entries after “also recorded” stand apart in the source; their conditions may differ.

Turning to `Clc1cccc(Cl)c1N=C1NCCN1` [clonidine], the “thermal paw withdrawal responses/latencies relative to both PBS and unloaded PLA pellet” value in data set [1] is recorded as “increased thermal paw withdrawal latencies on various test days”. Further, in data set [2], the “mechanical allodynia (paw withdrawal threshold) relative to either PBS or unloaded pellet” value is recorded as “no effect on paw withdrawal threshold responses”. Besides, the “overt side effects or adverse reactions at the site of injection” value in data set [3] is reported as “no overt side effects or adverse reactions at the site of injection; also recorded: did not cause any overt side effects or adverse reactions”.
On to `C[C@@H]1C[C@H]2[C@@H]3CCC4=CC(=O)C=C[C@]4(C)[C@@]3(F)[C@@H](O)C[C@]2(C)[C@@]1(O)C(=O)CO` [dexamethasone, (8S, 9R, 10S, 11S, 13S, 14S, 16R, 17R)-9-Fluoro-11,17-dihydroxy-17-(2-hydroxyacetyl)-10,13,16-trimethyl-6,7,8,11,12,14,15,16-octahydro-cyclopenta[a]phenanthren-3-one], for which the “overt side effects or adverse reactions at the site of injection” value in data set [3] was “no overt side effects or adverse reactions at the site of injection; also recorded: did not cause any overt side effects or adverse reactions”.
